Source: ChEMBL document CHEMBL1201862, “PubChem BioAssay data set” (2004)
Calls of active or inactive are those of the source.

Legend:
INS1 [1] = experiment: beta-cell survival under cytokine stress – INS-1E, ATP luminescence, dry powder, dose response (AID 488844); type: functional, cell-based; settings: Rattus norvegicus
INS1 [2] = experiment: INS-1E mitochondrial potential loss inhibitors – cell-based, JC-1 fluorescence, dry powder, set 2, dose response (AID 488867); type: functional; settings: Rattus norvegicus
INS1 [3] = experiment: INS-1E mitochondrial potential rescue under cytokines – cell-based, JC-1 fluorescence ratio, dry powder, dose response (AID 488931); type: functional; settings: Rattus norvegicus
Phospholipase D1 = Phospholipase D1 (Homo sapiens, UniProt Q13393); experiment: cellular phospholipase D1 inhibition IC50 – cell-based, dose response (AID 602151); type: functional;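 note: cellular PLD1 assay in Calu-1 cells stimulated with PMA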
Phospholipase D2 = Phospholipase D2 (Homo sapiens, UniProt O14939); experiment: cellular phospholipase D2 inhibition IC50 – cell-based, dose response (AID 602147); type: functional;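 note: cellular assay in HEK293 cells overexpressing GFP-tagged PLD2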
Hexokinase-1 = target: T1, Hexokinase-1 (Homo sapiens, UniProt P19367); experiment: SAR analysis of small molecule inhibitors of hexokinase domain containing I (HKDC1) in the hexokinase 1 selectivity assay. [Related pubchem assays (depositor defined):AID493160, AID493190]; type: functional
T1 sequence (P19367 whole entry): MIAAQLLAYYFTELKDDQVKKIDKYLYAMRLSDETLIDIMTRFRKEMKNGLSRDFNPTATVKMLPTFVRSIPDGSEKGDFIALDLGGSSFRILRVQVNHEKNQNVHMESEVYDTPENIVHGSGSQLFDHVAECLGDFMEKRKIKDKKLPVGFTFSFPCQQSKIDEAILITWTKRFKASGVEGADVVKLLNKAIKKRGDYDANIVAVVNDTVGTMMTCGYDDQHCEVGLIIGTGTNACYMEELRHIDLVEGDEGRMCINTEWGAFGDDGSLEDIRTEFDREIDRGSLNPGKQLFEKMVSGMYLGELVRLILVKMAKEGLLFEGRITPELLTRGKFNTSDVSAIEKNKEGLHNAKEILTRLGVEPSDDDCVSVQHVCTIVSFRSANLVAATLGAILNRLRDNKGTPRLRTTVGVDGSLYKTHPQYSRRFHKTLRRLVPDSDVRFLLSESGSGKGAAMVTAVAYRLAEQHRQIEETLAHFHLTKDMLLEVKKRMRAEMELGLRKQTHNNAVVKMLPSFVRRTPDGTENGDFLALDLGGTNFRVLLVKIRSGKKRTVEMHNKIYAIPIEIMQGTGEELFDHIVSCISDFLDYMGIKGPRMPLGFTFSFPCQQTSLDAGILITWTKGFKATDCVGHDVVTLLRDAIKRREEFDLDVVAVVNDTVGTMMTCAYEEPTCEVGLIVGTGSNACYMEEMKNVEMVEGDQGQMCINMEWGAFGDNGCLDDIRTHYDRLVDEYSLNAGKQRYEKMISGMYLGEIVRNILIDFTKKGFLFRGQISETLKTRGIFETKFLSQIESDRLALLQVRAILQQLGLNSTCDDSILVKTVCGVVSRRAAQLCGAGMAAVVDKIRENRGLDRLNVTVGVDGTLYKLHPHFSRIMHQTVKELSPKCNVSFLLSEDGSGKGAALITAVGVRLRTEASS

Hexokinase HKDC1 = target: T2, Hexokinase HKDC1 (Homo sapiens, UniProt Q2TB90); experiment: SAR analysis of small molecule inhibitors of hexokinase domain containing I (HKDC1). [Related pubchem assays (depositor defined):AID493160, AID493190]; type: functional
T2 sequence (Q2TB90 whole entry): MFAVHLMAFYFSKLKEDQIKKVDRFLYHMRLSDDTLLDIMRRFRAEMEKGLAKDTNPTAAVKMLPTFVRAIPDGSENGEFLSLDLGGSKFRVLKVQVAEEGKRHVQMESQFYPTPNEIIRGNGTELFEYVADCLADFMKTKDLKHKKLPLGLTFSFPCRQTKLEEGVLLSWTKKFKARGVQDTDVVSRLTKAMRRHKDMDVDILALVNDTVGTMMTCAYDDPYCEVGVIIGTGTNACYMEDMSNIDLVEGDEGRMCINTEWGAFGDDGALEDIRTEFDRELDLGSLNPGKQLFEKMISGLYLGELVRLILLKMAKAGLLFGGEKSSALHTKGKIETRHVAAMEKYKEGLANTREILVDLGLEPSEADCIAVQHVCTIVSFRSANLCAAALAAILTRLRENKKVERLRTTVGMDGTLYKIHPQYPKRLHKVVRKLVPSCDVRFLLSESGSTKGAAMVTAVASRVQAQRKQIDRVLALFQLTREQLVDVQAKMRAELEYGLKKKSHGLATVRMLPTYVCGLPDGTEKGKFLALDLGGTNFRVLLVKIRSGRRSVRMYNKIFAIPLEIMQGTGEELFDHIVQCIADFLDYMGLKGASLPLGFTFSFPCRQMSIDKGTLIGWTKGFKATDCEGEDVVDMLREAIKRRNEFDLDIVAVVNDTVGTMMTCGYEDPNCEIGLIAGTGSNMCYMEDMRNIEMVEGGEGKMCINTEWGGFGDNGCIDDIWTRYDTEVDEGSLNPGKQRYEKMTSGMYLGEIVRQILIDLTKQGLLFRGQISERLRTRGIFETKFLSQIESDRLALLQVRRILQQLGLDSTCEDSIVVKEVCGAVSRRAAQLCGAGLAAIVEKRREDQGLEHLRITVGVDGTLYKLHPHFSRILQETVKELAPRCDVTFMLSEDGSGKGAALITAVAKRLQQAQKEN

[4] = luciferase reporter signal suppression in cells – H4 neuroglioma cells, luminescence, dose response (AID 1990); type: functional, cell-based
[5] = decrease of insulin promoter-GFP reporter – imaging, high-content screening, mouse beta cells (AID 1628); type: functional; settings: MIN6
[6] = Luminescence Cell-Based Dose Response HTS to Identify Inhibitors of 5'UTR Stem-Loop Driven Prion Protein mRNA Translation in H4 Neuroglioblastoma Cells. [Related pubchem assays: 1827 (Project Summary), 1813 (Primary HTS)]; type: functional
[7] = MIN6 cell viability loss – mouse insulinoma, cytotoxicity control, dose response (AID 2122); type: functional;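 note: confirmatory high-throughput counterscreen run to flag cytotoxic compounds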
[8] = alpha-synuclein stem-loop luciferase translation blockers – H4 neuroglioma cells, luminescence, confirmation (AID 1988); type: functional, cell-based
[9] = target: Luciferin 4-monooxygenase (Photuris pensylvanica, UniProt Q27757); experiment: inhibition of Cell Titer Glo luciferase signal – biochemical, luminescence, cherry-picks, counter-screen for HSF-1 reporter inhibitor project, dose response (AID 588847)
Caspase-3 = target: T3, Caspase-3 (Homo sapiens, UniProt P42574); experiment: inhibition of recombinant caspase-3 activity – biochemical, luminescence, set 2, selectivity assay for SENP protease inhibitor project, SAR follow-up (AID 588599); type: functional
T3 sequence (P42574 whole entry): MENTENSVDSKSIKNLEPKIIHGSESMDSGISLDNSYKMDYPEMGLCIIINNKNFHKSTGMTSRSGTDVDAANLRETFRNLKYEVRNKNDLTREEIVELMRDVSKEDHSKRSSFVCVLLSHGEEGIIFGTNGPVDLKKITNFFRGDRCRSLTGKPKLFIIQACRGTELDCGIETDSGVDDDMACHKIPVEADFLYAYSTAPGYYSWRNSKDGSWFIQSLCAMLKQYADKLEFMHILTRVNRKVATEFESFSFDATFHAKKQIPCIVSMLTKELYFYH

[10] = target: T4, Sentrin-specific protease 8 (Homo sapiens, UniProt Q96LD8); experiment: inhibition of sentrin protease 8 – biochemical, luminescence, set 2, SAR follow-up (AID 588601); type: functional
T4 sequence (Q96LD8 whole entry): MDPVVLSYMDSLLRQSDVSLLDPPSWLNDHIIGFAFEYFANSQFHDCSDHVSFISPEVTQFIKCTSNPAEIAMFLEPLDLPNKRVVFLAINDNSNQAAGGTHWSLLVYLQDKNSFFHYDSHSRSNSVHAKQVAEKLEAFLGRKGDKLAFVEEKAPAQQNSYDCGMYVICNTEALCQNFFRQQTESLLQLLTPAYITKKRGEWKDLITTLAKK

[11] = target: T5, Sentrin-specific protease 7 (Homo sapiens, UniProt Q9BQF6); experiment: inhibition of human SENP7 cleavage activity – biochemical, luminescence, set 2, SAR follow-up (AID 588600); type: functional
T5 sequence (Q9BQF6 whole entry): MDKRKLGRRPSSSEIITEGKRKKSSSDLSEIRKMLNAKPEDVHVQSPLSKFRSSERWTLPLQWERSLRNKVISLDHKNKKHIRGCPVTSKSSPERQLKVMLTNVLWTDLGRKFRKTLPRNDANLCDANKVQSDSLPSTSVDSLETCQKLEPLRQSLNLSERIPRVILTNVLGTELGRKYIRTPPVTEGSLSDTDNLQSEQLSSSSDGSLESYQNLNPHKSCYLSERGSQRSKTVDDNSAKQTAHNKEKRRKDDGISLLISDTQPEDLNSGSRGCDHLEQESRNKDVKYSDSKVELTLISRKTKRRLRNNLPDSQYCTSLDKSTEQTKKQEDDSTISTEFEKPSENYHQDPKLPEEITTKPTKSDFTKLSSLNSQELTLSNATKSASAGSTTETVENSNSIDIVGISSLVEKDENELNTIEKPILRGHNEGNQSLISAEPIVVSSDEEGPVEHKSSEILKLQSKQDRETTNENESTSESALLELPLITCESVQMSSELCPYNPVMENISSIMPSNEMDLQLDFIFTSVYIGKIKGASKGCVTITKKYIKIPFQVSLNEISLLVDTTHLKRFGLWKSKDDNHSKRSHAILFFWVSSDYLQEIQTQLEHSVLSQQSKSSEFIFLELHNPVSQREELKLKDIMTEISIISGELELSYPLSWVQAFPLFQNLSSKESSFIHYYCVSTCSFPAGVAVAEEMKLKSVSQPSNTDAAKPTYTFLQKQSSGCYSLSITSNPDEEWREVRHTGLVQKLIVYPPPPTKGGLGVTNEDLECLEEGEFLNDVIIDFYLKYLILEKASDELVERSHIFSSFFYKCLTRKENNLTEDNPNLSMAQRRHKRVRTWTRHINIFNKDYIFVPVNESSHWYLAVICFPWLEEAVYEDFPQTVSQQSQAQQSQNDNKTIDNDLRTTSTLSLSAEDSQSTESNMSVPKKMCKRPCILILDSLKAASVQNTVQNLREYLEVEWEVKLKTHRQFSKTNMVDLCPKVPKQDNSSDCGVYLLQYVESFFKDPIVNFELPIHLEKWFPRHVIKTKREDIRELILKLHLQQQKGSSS

[12] = target: T6, Sentrin-specific protease 6 (Homo sapiens, UniProt Q9GZR1); experiment: inhibition of human SENP6 catalytic domain – biochemical, luminescence, set 2, SAR follow-up (AID 588598); type: functional
T6 sequence (Q9GZR1 whole entry): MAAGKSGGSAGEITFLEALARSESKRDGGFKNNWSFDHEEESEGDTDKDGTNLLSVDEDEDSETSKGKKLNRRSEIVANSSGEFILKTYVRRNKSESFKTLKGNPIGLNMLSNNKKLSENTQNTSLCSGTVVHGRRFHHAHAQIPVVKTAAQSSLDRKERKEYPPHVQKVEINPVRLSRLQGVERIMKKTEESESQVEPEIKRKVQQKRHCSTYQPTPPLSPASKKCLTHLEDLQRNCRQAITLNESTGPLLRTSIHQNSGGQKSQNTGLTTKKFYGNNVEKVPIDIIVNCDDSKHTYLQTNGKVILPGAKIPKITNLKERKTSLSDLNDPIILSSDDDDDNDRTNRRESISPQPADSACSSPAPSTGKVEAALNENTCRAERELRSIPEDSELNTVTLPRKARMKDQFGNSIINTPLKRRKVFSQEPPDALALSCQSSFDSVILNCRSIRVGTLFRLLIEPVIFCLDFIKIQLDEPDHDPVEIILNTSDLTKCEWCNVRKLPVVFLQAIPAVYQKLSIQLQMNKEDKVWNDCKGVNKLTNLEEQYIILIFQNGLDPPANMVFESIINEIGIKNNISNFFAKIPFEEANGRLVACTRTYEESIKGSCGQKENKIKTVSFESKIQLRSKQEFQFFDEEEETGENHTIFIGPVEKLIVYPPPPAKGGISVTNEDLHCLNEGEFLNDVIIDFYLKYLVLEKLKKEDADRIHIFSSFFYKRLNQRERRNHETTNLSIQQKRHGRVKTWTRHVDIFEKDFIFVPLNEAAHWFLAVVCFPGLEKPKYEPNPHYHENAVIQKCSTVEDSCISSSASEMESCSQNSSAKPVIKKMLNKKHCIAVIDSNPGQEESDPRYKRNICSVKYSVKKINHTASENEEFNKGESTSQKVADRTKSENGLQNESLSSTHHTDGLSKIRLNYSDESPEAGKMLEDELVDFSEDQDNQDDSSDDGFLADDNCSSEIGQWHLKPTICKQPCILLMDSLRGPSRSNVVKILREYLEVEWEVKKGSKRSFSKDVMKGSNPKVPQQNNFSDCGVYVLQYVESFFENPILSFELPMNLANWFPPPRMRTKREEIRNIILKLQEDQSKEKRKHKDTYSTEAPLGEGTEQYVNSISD

Chain of Phospholipase D1 (Q13393 whole entry): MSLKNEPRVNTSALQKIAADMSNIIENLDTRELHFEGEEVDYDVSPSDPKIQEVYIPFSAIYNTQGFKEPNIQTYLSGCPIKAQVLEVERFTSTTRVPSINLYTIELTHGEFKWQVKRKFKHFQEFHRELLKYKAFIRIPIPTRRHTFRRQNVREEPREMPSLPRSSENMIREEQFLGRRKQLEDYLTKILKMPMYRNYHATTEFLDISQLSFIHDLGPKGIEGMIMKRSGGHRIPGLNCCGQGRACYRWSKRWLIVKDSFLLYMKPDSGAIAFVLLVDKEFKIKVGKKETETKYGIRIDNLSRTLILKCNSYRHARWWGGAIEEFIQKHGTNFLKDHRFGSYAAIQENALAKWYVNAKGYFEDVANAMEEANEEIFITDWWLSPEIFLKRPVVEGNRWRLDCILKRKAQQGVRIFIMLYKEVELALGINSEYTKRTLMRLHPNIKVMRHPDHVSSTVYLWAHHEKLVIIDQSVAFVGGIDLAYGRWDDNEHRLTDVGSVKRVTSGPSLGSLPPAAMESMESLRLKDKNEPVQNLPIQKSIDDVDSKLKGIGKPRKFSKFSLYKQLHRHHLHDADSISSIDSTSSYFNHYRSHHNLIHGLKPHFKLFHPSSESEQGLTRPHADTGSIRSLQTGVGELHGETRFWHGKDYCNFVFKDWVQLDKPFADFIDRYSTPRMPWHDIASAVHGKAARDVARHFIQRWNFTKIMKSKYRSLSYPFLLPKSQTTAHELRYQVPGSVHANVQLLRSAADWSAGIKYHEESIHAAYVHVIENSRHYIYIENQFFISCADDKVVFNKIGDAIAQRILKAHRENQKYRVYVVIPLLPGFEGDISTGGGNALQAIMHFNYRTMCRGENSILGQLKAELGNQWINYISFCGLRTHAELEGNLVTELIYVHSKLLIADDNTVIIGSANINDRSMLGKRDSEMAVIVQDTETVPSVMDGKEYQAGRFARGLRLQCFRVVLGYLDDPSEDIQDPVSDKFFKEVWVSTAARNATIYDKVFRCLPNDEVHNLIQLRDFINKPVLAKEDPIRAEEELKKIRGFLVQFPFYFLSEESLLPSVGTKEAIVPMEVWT
Chain of Luciferin 4-monooxygenase (Q27757 whole entry): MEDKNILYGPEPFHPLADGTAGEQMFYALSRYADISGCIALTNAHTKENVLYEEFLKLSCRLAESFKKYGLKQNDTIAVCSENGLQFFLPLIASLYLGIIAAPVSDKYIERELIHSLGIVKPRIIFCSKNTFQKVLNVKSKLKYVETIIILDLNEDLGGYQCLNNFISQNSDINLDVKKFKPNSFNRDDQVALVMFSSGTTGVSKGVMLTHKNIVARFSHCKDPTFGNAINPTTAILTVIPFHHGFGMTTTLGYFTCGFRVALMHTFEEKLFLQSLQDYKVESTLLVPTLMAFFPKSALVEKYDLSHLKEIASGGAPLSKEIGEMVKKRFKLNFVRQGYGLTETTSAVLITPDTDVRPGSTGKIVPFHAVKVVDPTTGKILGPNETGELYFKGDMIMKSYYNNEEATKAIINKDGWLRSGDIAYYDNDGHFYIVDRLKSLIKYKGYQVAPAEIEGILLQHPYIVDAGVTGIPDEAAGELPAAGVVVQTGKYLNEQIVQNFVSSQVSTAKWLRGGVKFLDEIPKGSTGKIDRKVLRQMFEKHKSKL
Chain of Phospholipase D2 (O14939 whole entry, the tested form may be a part): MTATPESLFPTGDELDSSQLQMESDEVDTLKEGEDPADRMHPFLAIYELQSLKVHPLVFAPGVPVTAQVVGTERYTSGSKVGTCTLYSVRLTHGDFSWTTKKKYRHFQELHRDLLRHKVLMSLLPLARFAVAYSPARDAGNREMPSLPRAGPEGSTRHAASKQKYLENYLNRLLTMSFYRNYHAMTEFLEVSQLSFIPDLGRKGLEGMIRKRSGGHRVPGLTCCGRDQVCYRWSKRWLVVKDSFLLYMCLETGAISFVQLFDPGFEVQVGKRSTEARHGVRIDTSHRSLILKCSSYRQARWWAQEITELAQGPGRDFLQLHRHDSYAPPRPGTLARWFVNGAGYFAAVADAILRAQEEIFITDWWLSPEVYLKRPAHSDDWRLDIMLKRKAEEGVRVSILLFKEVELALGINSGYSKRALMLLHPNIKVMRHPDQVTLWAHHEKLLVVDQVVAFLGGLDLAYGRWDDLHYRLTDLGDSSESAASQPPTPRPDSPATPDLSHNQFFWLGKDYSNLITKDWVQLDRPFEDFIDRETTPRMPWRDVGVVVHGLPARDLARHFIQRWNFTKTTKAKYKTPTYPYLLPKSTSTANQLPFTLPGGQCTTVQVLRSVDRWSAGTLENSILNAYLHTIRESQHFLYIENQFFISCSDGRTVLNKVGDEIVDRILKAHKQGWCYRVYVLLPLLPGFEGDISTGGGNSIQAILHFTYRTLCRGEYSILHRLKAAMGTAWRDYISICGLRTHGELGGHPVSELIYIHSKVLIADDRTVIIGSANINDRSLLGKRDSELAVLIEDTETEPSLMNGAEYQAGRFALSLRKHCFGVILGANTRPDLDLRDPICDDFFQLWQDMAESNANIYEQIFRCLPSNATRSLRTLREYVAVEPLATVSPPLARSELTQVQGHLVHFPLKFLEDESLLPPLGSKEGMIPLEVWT

Compound: COc1ccc(S(=O)(=O)N(C)C[C@@H]2Oc3c(NC(=O)Nc4ccccc4)cccc3C(=O)N([C@H](C)CO)C[C@H]2C)cc1
- AC50 (INS1 [1]): 22.8 µM (active)
- AC50 (INS1 [2]): > 260 µM (inactive)
- AC50 (INS1 [3]): > 195 µM (inactive)

Compound: C[C@@H](CN1CCC2(CC1)C(=O)NCN2c1ccc(F)c(F)c1)NC(=O)c1ccc2ccccc2c1
- IC50 (Phospholipase D1): 0.1 µM (active)
- IC50 (Phospholipase D2): 0.3 µM (active)

Compound: Nc1n[nH]c(SCC(=O)Nc2cc(S(=O)(=O)N3CCOCC3)ccc2Cl)n1
- IC50 (Hexokinase-1): > 80 µM (inactive)
- IC50 (Hexokinase HKDC1): > 80 µM (inactive)

Compound: C[C@@H]1C[C@H]2[C@@H]3CCC4=CC(=O)C=C[C@]4(C)[C@@]3(F)[C@@H](O)C[C@]2(C)[C@@]1(O)C(=O)CO [DEXAMETHASONE]
- EC50 [4]: > 120 µM (not active)
- IC50 [5]: < 0.25 µM (active)
- EC50 [6]: > 120 µM (not active)
- IC50 [7]: > 16 µM (inactive)
- EC50 [8]: > 120 µM (not active)
- AC50 [9]: > 52 µM (inactive)

Compound: CS(=O)(=O)c1ccc2nc(NC(=O)c3ccc(OC(F)(F)F)cc3)sc2c1
- IC50 (Caspase-3): > 99 µM (inactive)
- IC50 [10]: > 99 µM (inactive)
- IC50 [11]: > 99 µM (inactive)
- IC50 [12]: > 99 µM (inactive)
